According to the NIST ThermoML archive (doi:10.1016/j.jct.2019.05.002):

Experiment: xn = mol fraction of the nth substance listed
Details: 100 kPa, Liquid; for speed of sound: Frequency=3 MHz, Single path-length method; for mass density: Vibrating tube method

CC(O)CCO (stereo not given) [1,3-butanediol] + CCCC(=O)OCC
Details | mass density [kg/m3] | speed of sound [m/s]
298.15 K, x2 = 0 | 1001.87 | 1527.9
298.15 K, x2 = 0.1034 | 988.68 | 1491.1
298.15 K, x2 = 0.203 | 975.97 | 1455.7
298.15 K, x2 = 0.305 | 962.97 | 1419.4
298.15 K, x2 = 0.3835 | 952.95 | 1391.4
298.15 K, x2 = 0.4936 | 938.91 | 1352.2
298.15 K, x2 = 0.5811 | 927.76 | 1321.1
298.15 K, x2 = 0.6878 | 914.14 | 1283.1
298.15 K, x2 = 0.7997 | 899.87 | 1243.3
298.15 K, x2 = 0.8818 | 889.39 | 1214.1
303.15 K, x2 = 0 | 998.41 | 1514
303.15 K, x2 = 0.1034 | 985.01 | 1476.5
303.15 K, x2 = 0.203 | 972.1 | 1440.3
303.15 K, x2 = 0.305 | 958.89 | 1403.3
303.15 K, x2 = 0.3835 | 948.71 | 1374.8
303.15 K, x2 = 0.4936 | 934.45 | 1334.8
303.15 K, x2 = 0.5811 | 923.12 | 1303.1
303.15 K, x2 = 0.6878 | 909.28 | 1264.3
303.15 K, x2 = 0.7997 | 894.79 | 1223.7
303.15 K, x2 = 0.8818 | 884.14 | 1193.9
308.15 K, x2 = 0 | 994.94 | 1500.1
308.15 K, x2 = 0.1034 | 981.34 | 1461.9
308.15 K, x2 = 0.203 | 968.23 | 1425
308.15 K, x2 = 0.305 | 954.82 | 1387.2
308.15 K, x2 = 0.3835 | 944.49 | 1358.2
308.15 K, x2 = 0.4936 | 930.01 | 1317.4
308.15 K, x2 = 0.5811 | 918.51 | 1285.1
308.15 K, x2 = 0.6878 | 904.47 | 1245.5
308.15 K, x2 = 0.7997 | 889.75 | 1204.1
308.15 K, x2 = 0.8818 | 878.94 | 1173.7
313.15 K, x2 = 0 | 991.49 | 1486.2
313.15 K, x2 = 0.1034 | 977.69 | 1447.2
313.15 K, x2 = 0.203 | 964.38 | 1409.6
313.15 K, x2 = 0.305 | 950.77 | 1371.2
313.15 K, x2 = 0.3835 | 940.28 | 1341.5
313.15 K, x2 = 0.4936 | 925.59 | 1300
313.15 K, x2 = 0.5811 | 913.91 | 1267
313.15 K, x2 = 0.6878 | 899.66 | 1226.8
313.15 K, x2 = 0.7997 | 884.72 | 1184.6
313.15 K, x2 = 0.8818 | 873.76 | 1153.6
318.15 K, x2 = 0 | 988.02 | 1472.3
318.15 K, x2 = 0.1034 | 974.01 | 1432.6
318.15 K, x2 = 0.203 | 960.49 | 1394.3
318.15 K, x2 = 0.305 | 946.68 | 1355.1
318.15 K, x2 = 0.3835 | 936.03 | 1324.9
318.15 K, x2 = 0.4936 | 921.1 | 1282.6
318.15 K, x2 = 0.5811 | 909.25 | 1249
318.15 K, x2 = 0.6878 | 894.78 | 1208
318.15 K, x2 = 0.7997 | 879.61 | 1165
318.15 K, x2 = 0.8818 | 868.48 | 1133.4
323.15 K, x2 = 0 | 984.56 | 1458.4
323.15 K, x2 = 0.1034 | 970.34 | 1417.9
323.15 K, x2 = 0.203 | 956.63 | 1378.9
323.15 K, x2 = 0.305 | 942.62 | 1339
323.15 K, x2 = 0.3835 | 931.81 | 1308.3
323.15 K, x2 = 0.4936 | 916.67 | 1265.2
323.15 K, x2 = 0.5811 | 904.65 | 1231
323.15 K, x2 = 0.6878 | 889.97 | 1189.2
323.15 K, x2 = 0.7997 | 874.58 | 1145.4
323.15 K, x2 = 0.8818 | 863.28 | 1113.3

CCC(O)CO (stereo not given) [1,2-butanediol] + CCCC(=O)OCC
Details | mass density [kg/m3] | speed of sound [m/s]
298.15 K, x2 = 0 | 998.56 | 1452.5
298.15 K, x2 = 0.1011 | 986 | 1424.2
298.15 K, x2 = 0.2032 | 973.31 | 1395.5
298.15 K, x2 = 0.3034 | 960.87 | 1367.4
298.15 K, x2 = 0.4004 | 948.81 | 1340.2
298.15 K, x2 = 0.5064 | 935.64 | 1310.5
298.15 K, x2 = 0.6021 | 923.76 | 1283.6
298.15 K, x2 = 0.7043 | 911.06 | 1254.9
298.15 K, x2 = 0.8009 | 899.06 | 1227.9
298.15 K, x2 = 0.9012 | 886.59 | 1199.7
303.15 K, x2 = 0 | 994.75 | 1437.9
303.15 K, x2 = 0.1011 | 982.02 | 1408.9
303.15 K, x2 = 0.2032 | 969.16 | 1379.6
303.15 K, x2 = 0.3034 | 956.55 | 1350.9
303.15 K, x2 = 0.4004 | 944.33 | 1323
303.15 K, x2 = 0.5064 | 930.98 | 1292.6
303.15 K, x2 = 0.6021 | 918.93 | 1265.2
303.15 K, x2 = 0.7043 | 906.06 | 1235.8
303.15 K, x2 = 0.8009 | 893.9 | 1208.1
303.15 K, x2 = 0.9012 | 881.27 | 1179.3
308.15 K, x2 = 0 | 990.92 | 1423.3
308.15 K, x2 = 0.1011 | 978.03 | 1393.7
308.15 K, x2 = 0.2032 | 965.01 | 1363.7
308.15 K, x2 = 0.3034 | 952.23 | 1334.3
308.15 K, x2 = 0.4004 | 939.86 | 1305.9
308.15 K, x2 = 0.5064 | 926.34 | 1274.8
308.15 K, x2 = 0.6021 | 914.14 | 1246.7
308.15 K, x2 = 0.7043 | 901.11 | 1216.7
308.15 K, x2 = 0.8009 | 888.79 | 1188.4
308.15 K, x2 = 0.9012 | 876 | 1159
313.15 K, x2 = 0 | 987.11 | 1408.7
313.15 K, x2 = 0.1011 | 974.05 | 1378.4
313.15 K, x2 = 0.2032 | 960.87 | 1347.8
313.15 K, x2 = 0.3034 | 947.93 | 1317.8
313.15 K, x2 = 0.4004 | 935.41 | 1288.7
313.15 K, x2 = 0.5064 | 921.72 | 1256.9
313.15 K, x2 = 0.6021 | 909.36 | 1228.3
313.15 K, x2 = 0.7043 | 896.16 | 1197.6
313.15 K, x2 = 0.8009 | 883.69 | 1168.7
313.15 K, x2 = 0.9012 | 870.74 | 1138.6
318.15 K, x2 = 0 | 983.28 | 1394.1
318.15 K, x2 = 0.1011 | 970.05 | 1363.2
318.15 K, x2 = 0.2032 | 956.7 | 1331.9
318.15 K, x2 = 0.3034 | 943.59 | 1301.2
318.15 K, x2 = 0.4004 | 930.9 | 1271.5
318.15 K, x2 = 0.5064 | 917.03 | 1239.1
318.15 K, x2 = 0.6021 | 904.51 | 1209.8
318.15 K, x2 = 0.7043 | 891.14 | 1178.5
318.15 K, x2 = 0.8009 | 878.51 | 1148.9
318.15 K, x2 = 0.9012 | 865.39 | 1118.2
323.15 K, x2 = 0 | 979.46 | 1379.5
323.15 K, x2 = 0.1011 | 966.07 | 1347.9
323.15 K, x2 = 0.2032 | 952.55 | 1316
323.15 K, x2 = 0.3034 | 939.28 | 1284.7
323.15 K, x2 = 0.4004 | 926.44 | 1254.4
323.15 K, x2 = 0.5064 | 912.4 | 1221.3
323.15 K, x2 = 0.6021 | 899.72 | 1191.4
323.15 K, x2 = 0.7043 | 886.19 | 1159.4
323.15 K, x2 = 0.8009 | 873.4 | 1129.2
323.15 K, x2 = 0.9012 | 860.11 | 1097.9
